This note sets out measurements from PMC11393688, “Design and synthesis of new 1,2,4-oxadiazole/quinazoline-4-one hybrids with antiproliferative activity as multitargeted inhibitors” (Frontiers in Chemistry, 2024).

Each structure is given as a SMILES string.

Data set [1] can be described thus: Cell viability, MTT test on normal cell line. The conditions noted are these: human, MCF-10A mammary gland epithelial cells (normal cell line), MCF-10A normal cells, 4 days incubation. Type of data set: cell-based. The procedure: The human mammary gland epithelial (MCF-10A) normal cell line was used to test the viability of novel compounds 9a-o ([Mahmoud et al., 2022]; [Mekheimer et al., 2022]). After 4 days of incubation on MCF-10A cells, the cell viability of compounds 9a-o was determined using the MTT test.
The human mammary gland epithelial (MCF-10A) normal cell line was used to test the viability of compounds 9a-o ([Mahmoud et al., 2022]; [Mekheimer et al., 2022]). Refer to Supplementary Appendix A (Supplementary Material) for more details.
4.2. Biological evaluation
4.2.1. Cytotoxic activity using MTT Assay and evaluation of IC50
MTT assay was carried out to study the effect of compounds on mammary epithelial cells (MCF-10A). The medium in which cells were propagated contained Dulbecco's modified Eagle's medium (DMEM)/ Ham's F-12 medium (1:1) supplemented with epidermal growth factor (20 ng/mL), hydrocortisone (500 ng/mL), insulin (10 μg/mL), 2 mM glutamine and 10% foetal calf serum.
After every 2-3 days, the cells were passaged using trypsin ethylenediamine tetra acetic acid (EDTA). The cells were seeded at a density of 10^4 cells mL-1 in flat-bottomed culture plates containing 96 wells each. After 24 h, medium was removed from the plates and the compounds in (in 0.1% DMSO) were added (in 200 μL medium to yield a final concentration of 0.1% v/v) to the wells of plates. A single compound was designated with four wells followed by incubation of plates for 96h at 37°C. After incubation, medium was removed completely from the plates followed by addition of MTT (0.4 mg/mL in medium) to each well and subsequent incubation of plates for 3h. MTT (along with the medium) was removed and DMSO (150μL) was added to each well of the culture plates, followed by vertexing and subsequent measurement of absorbance (at 540 nm) using microplate reader. The data are shown as percentage inhibition of proliferation in comparison with controls containing 0.1% DMSO.
Background: Formazan colour is commonly taken as a measure of viable cells.

Another data set deals with EGFR^T790M (Homo sapiens, UniProt P00533, T790M). The experiment in a line: EGFR^T790M inhibitory assay (HTRF KinEASE-TK).
Chain of EGFR^T790M (P00533 25-1210 T790M): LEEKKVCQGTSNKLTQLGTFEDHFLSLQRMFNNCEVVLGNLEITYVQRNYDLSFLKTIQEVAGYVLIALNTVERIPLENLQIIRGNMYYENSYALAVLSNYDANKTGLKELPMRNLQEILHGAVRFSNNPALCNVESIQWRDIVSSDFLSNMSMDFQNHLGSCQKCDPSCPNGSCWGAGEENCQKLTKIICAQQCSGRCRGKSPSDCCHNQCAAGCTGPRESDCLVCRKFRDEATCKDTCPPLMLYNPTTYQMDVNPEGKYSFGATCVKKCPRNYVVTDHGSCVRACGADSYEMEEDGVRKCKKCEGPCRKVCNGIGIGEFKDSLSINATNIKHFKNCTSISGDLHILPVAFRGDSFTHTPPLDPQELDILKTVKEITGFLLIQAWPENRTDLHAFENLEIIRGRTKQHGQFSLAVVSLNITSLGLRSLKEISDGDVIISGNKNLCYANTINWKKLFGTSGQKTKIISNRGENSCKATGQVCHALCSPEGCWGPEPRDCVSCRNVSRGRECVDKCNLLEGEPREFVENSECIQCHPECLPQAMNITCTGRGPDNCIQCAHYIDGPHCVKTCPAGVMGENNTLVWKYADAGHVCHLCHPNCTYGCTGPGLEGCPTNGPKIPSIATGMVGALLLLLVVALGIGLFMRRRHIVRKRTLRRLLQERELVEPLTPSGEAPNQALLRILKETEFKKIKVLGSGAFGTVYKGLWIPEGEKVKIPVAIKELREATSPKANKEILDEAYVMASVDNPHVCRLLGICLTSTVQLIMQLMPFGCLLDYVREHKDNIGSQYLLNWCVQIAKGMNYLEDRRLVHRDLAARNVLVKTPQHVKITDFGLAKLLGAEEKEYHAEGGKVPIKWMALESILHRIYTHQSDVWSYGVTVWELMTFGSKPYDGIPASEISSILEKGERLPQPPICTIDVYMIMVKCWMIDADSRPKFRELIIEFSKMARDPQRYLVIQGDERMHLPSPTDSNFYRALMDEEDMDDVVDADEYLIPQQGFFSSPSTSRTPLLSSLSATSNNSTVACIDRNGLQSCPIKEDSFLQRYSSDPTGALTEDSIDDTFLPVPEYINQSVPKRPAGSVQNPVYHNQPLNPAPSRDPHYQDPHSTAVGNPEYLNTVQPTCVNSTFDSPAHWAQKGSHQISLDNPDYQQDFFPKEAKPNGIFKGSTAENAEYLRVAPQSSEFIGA
In data set [2] the test system is colon cancer (HT-29) cell line. The experiment in a line: Antiproliferative MTT assay, HT-29. It counts as cell-based. The settings on record: Homo sapiens, HT-29 colon cancer cells, read-out: Antiproliferative activity IC50 ± SEM HT-29.
The subject of data set [3] is four human cancer cell lines (HT-29, Panc-1, A-549, MCF-7). Briefly: Average antiproliferative activity (GI50) over four cancer cell lines. Type of data set: cell-based. The settings on record: average IC50 against the four cancer cell lines. The method, then: (§1) 4.2.1.2. Assay for antiproliferative effect
(§2) To explore the antiproliferative potential of compounds MTT assay was performed according to previously reported procedure using different cell lines to explore the antiproliferative potential of […]
(§3) calculate the total nuclear DNA, a fluorescent dye (propidium iodide, PI) is used which can attach to the DNA, thus offering a quick and precise technique. PI cannot pass through the cell membrane and its signal intensity can be considered as directly proportional to quantity of cellular DNA.
(§4) Cells whose cell membranes are damaged or have changed permeability are counted as dead ones.
(§5) The assay was performed by seeding the cells of different cell lines at a density of 3000-7500 cells/well (in 200µl medium) in culture plates followed by incubation for 24h at 37 °C in humidified 5% CO2/95% air atmospheric conditions. The medium was removed; the compounds were added to the plates at 10 µM concentrations (in 0.1% DMSO) in triplicates, followed by incubation for 48 h. DMSO (0.1%) was used as control. After incubation, medium was removed […]
(§6) 80 °C, the plates were allowed to freeze for 24 h, followed by thawing at 25 °C. […]
(§7) (Polar-Star BMG Tech) was used to record the readings at excitation and emission wavelengths of 530 and 620 nm for each well. The percentage cytotoxicity of compounds was calculated using […]
(§8) Where ATC= Absorbance of treated cells and AC= Absorbance of control. Erlotinib was used as positive control in the assay.

Data set [4] deals with pancreatic cancer (Panc-1) cell line. Briefly: Antiproliferative MTT assay, Panc-1. It counts as cell-based. The conditions noted are these: Homo sapiens, Panc-1 pancreatic cancer cells, read-out: Antiproliferative activity IC50 ± SEM Panc-1. The procedure: as §1, §2, §3, §4, §5, §6, §7, §8
Data set [5] deals with lung cancer (A-549) cell line. The experiment in a line: Antiproliferative MTT assay, A-549. Type of data set: cell-based. The settings on record: Homo sapiens, A549, A-549 lung cancer cells, read-out: Antiproliferative activity IC50 ± SEM A-549. The method, then:
as §1, §2, §3, §4, §5, §6, §7, §8

The subject of data set [6] is breast cancer (MCF-7) cell line. The experiment in a line: Antiproliferative MTT assay, MCF-7. Type of data set: cell-based. The conditions noted are these: Homo sapiens, MCF7, MCF-7 breast cancer cells, read-out: Antiproliferative activity IC50 ± SEM MCF-7. The procedure:
as §1, §2, §3, §4, §5, §6, §7, §8

Data set [7] concerns A-549 cells. The experiment in a line: Apoptosis induction assay, Annexin V/PI flow cytometry. Type of data set: cell-based, human. The settings on record: A-549, Annexin V/PI, 24 h. The method, then:
To assess 9b′s potential to induce apoptosis, A-549 cells were labeled with Annexin V/PI, grown for 24 h, and evaluated.
Compound 9b was investigated for its effects on cell cycle progression and apoptosis induction in A-549 cells. […] The cell line was labeled with PI/Annexin V, and flow cytometry was done with a BD FASC Caliber ([El-Sherief et al., 2018]). See Supplementary Appendix A for more details. […]
served as positive control. To study the effect of compounds on cell-based pERK1/2 activity in cancer cells, commercially available ELISA kits (Invitrogen) were used according to manufacturer’s instructions.
4.2.1.6. Cell apoptosis assay
Apoptosis was determined by flow cytometry based on the Annexin-V-fluoresce in isothiocyanate (FITC) and propidium iodide (PI) staining kit (BD Pharmingen, San Diego, USA).
(FITC) and propidium iodide (PI) staining kit (BD Pharmingen, San Diego, USA). Apoptotic cells were defined as Annexin-V-positive. Cells were grown to approximately ∼70% confluence and exposed to different concentrations of compounds (0, 2, 4, 6 and8 μmol/L) for 24 h. […] Subsequently, cells were analyzed by flow cytometry (Becton Dickinson, Franklin Lakes, and USA). […]
Computerized Prism 5 program was used to statistically analyzed data using one-way ANOVA test followed by Tukey’s as post ANOVA for multiple comparison at P ≤.05. […]

The test system of data set [8] is A-549 cells. Briefly: Cell cycle analysis by flow cytometry. Type of data set: cell-based, human. The conditions noted are these: A-549, IC50 concentration, 24 h. From the text:
Compound 9b was investigated for its effects on cell cycle progression and apoptosis induction in A-549 cells. […] The cell line was labeled with PI/Annexin V, and flow cytometry was done with a BD FASC Caliber ([El-Sherief et al., 2018]).
Compound 9b was investigated for its effects on cell cycle progression and apoptosis induction in A-549 cells. […] The cell line was labeled with PI/Annexin V, and flow cytometry was done with a BD FASC Caliber ([El-Sherief et al., 2018]). See Supplementary Appendix A for more details.
(In general: In flow cytometry, cells or beads pass a laser one at a time.)

One may read the viability as a read-out of living cells in per cent, often relative to untreated cells. A lower viability goes with more harm to the cells. What is called IC50 is the point on the concentration scale where inhibition reaches its midpoint. As a reminder, the GI50 is the concentration at which growth is held to half of that of the control. A lower GI50 goes with greater sensitivity of the cells.

Compound `O=c1c2ccccc2nc(SCc2nc(-c3ccc(Cl)cc3)no2)n1-c1ccccc1` [Compound 9b, 2-((3-(4-Chlorophenyl)-1,2,4-oxadiazol-5-yl)methylthio)-3 phenylquinazolin-4(3H)-one] came in with a viability at 96 h, 50 µM in data set [1] of 89%. Besides, the IC50 at EGFR^T790M is 10 ± 1 nM; in data set [2], 24 ± 2 nM; in [4] it was 24 ± 2 nM; in [5], 22 ± 2 nM; in [6], 26 ± 2 nM. The GI50 in data set [3] came to 24 nM. Further, the Necrosis percentage in the data set with A-549 cells [7] is recorded as 6.43%. For the same compound, the “Effect on cell cycle” value with A-549 cells [8] is given as “cell cycle arrest at the G2/M transition”.
